Converted amounts (≈) assume the structure as drawn. “And” between values parts separate entries of the source, which are not always exact repeats. Identical values can stand only once. The source made the active and inactive calls. No cut-off for these calls is given here.

One may read the IC50 as the concentration at which inhibition is half-maximal. A low value points to inhibition by little substance. By inhibition is commonly meant the change of the read-out against control, counted positive when it falls. A high value points to a strong effect. As usually defined, the Inhibition is the percentage by which the read-out fell short of the control.

The species named for test [1] is Homo sapiens. The test can be described thus: Activity against PRP following incubation for 30 min in human whole blood; Inactive. Type of test: functional, tissue-based.
Test [2] in a line: Concentration required to inhibit in vitro ADP-induced platelet aggregation in human platelet rich plasma relative PGE1. The format is functional.
Test [3] is described as follows: Inhibitory concentration required to inhibit ADP-induced platelet aggregation in human platelet rich plasma. Type of test: functional, cell-free.
Test [4] in a line: Inhibitory activity against ADP-induced platelet aggregation at concentration 10 ug/mL. The format is functional, Homo sapiens. The note with it: for inhibition at 10 µg/mL: Homo sapiens.
Test [5] can be described thus: Inhibitory activity against ADP-induced platelet aggregation at concentration 1.0 ug/mL. The format is functional. The note with it: Homo sapiens.
The species entered for test [6] is Homo sapiens. The test can be described thus: Activity against PRP following incubation for 30 min in human whole blood; Active. Type of test: functional, tissue-based.
Test [7] relates to Cavia porcellus. The test can be described thus: ADP-induced platelet aggregation activity was tested for oral activity in guinea pigs at dose 50 mg/kg.
Test [8] in a line: Inhibitory activity against ADP-induced platelet aggregation at concentration 3.2 ug/mL. Type of test: functional, Homo sapiens.
The subject of test [9] is Rattus norvegicus. The test can be described thus: ADP-induced platelet aggregation activity was tested for oral activity in rats at dose 100 mg/kg. The format is functional.
The subject of test [10] is Rattus norvegicus. The test can be described thus: ADP-induced platelet aggregation activity was tested for oral activity in rats at dose 30 mg/kg. Type of test: functional.
In test [11] the test system is Cavia porcellus. The test can be described thus: ADP-induced platelet aggregation activity was tested for oral activity in guinea pigs at dose 100 mg/kg. The format is functional.
The nature of test [12]: Inhibitory activity against ADP-induced platelet aggregation at concentration 1 ug/mL. Type of test: functional, Homo sapiens.
The nature of test [13]: Inhibitory activity against ADP-induced platelet aggregation at concentration 10 ng/mL. The format is functional, Homo sapiens.
Test [14] is described as follows: Inhibitory activity against ADP-induced platelet aggregation at concentration 32 ng/mL. Type of test: functional, Homo sapiens.
Test [15] relates to Cavia porcellus. The test can be described thus: ADP-induced platelet aggregation activity was tested for oral activity in guinea pigs at dose 30 mg/kg. Type of test: functional.
Test [16] relates to Rattus norvegicus. The test can be described thus: ADP-induced platelet aggregation activity was tested for oral activity in rats at dose 50 mg/kg. Type of test: functional.
Test [17] deals with Rattus norvegicus. The test can be described thus: ADP-induced platelet aggregation activity was tested for oral activity in rats at dose 25 mg/kg. The format is functional.
In test [18] the test system is Cavia porcellus. The test can be described thus: ADP-induced platelet aggregation activity was tested for oral activity in guinea pigs at dose 50 mg/kg. The format is functional.

As to `O=C(NCc1cc(CNC(=O)N(C(=NC2CCCCC2)N2CCOCC2)C2CCCCC2)cc(CNC(=O)N(C(=NC2CCCCC2)N2CCOCC2)C2CCCCC2)c1)N(C(=NC1CCCCC1)N1CCOCC1)C1CCCCC1`, the result in test [1] was inactive. This molecule gave a Relative potency in [2] of 0.001. Further, inhibition in test [3] was half-maximal at 10 µg/mL (≈ 8.9 µM) (IC50).

`O=C(NCc1cccc(CNC(=O)N(C(=NC2CCCCC2)N2CCOCC2)C2CCCCC2)c1)N(C(=NC1CCCCC1)N1CCOCC1)C1CCCCC1` had an inhibition at 10 µg/mL in test [4] of 68%. Also, the inhibition at 1 µg/mL in test [5] came to 27%. Moreover, the outcome in test [6] was Active. Moreover, the Relative potency in [2] was determined as 0.003. In addition, the Aggregation in test [7] was 19.3%. For the same molecule, in test [8] (Homo sapiens), testing at 3.2 µg/mL gave an inhibition of 40%. The same molecule yielded an IC50 in [3] of 3.2 µg/mL (≈ 4.13 µM).

On to `O=C(NCCCCCCCCCNC(=O)N(C(=NC1CCCCC1)N1CCOCC1)C1CCCCC1)N(C(=NC1CCCCC1)N1CCOCC1)C1CCCCC1`, for which, in [2], the Relative potency is recorded as 0.001. The same molecule returned an IC50 in test [3] of 10 µg/mL (≈ 12.5 µM).

The molecule `O=C(NCCCCCNC(=O)N(C(=NC1CCCCC1)N1CCOCC1)C1CCCCC1)N(C(=NC1CCCCC1)N1CCOCC1)C1CCCCC1` displayed a Relative potency in test [2] of 0.001. The Aggregation in [9] turned out to be 41%. In addition, the IC50 in test [3] stood at 10 µg/mL (≈ 13.5 µM).

Take `CN(CCCCCCN(C)C(=O)N(C(=NC1CCCCC1)N1CCOCC1)C1CCCCC1)C(=O)N(C(=NC1CCCCC1)N1CCOCC1)C1CCCCC1`: the Aggregation in test [10] is 81.2%; in test [11], 41%; in test [9], 52%. In test [2], this molecule showed a Relative potency of 0.003. Moreover, the IC50 in test [3] came to 3.2 µg/mL (≈ 4.09 µM).

Take `O=C(NCCCCCCCNC(=O)N(C(=NC1CCCCC1)N1CCOCC1)C1CCCCC1)N(C(=NC1CCCCC1)N1CCOCC1)C1CCCCC1`: in test [2], the Relative potency is 0.001. Moreover, in test [9], the Aggregation stood at 70.5%. Also, the IC50 in [3] is 10 µg/mL (≈ 13 µM).

For `O=C(NCCCCCCNC(=O)N(C(=NC1CCCCC1)N1CCOCC1)C1CCCCC1)N(C(=NC1CCCCC1)N1CCOCC1)C1CCCCC1`, the Inhibition in test [4] is 85%; in test [12] it was 27%; in [8] it was 38% and 62%. For the same molecule, in test [4], the inhibition at 10 µg/mL was 82%. The molecule also displayed an inhibition at 1 µg/mL in test [12] (Homo sapiens) of 29%. The result in test [6] was Active. The Relative potency in [2] stood at 0.003. The same molecule came in with an Aggregation in [9] of 80.8%. In test [3], this molecule yielded an IC50 of 3.2 µg/mL (≈ 4.24 µM).

On to `CCCCC[C@H](O)/C=C/[C@H]1[C@H](O)CC(=O)[C@@H]1CCCCCCC(=O)O` [ALPROSTADIL], for which the Inhibition in test [13] was 56% and 28% and 37%; in test [14], 94% and 90% and 72%. The same molecule registered a Relative potency in test [2] of 1. Further, half-maximal inhibition in [3] (IC50) required 0.01 µg/mL (≈ 0.0282 µM).

As for `CN(CCN(C)C(=O)N(C(=NC1CCCCC1)N1CCOCC1)C1CCCCC1)C(=O)N(C(=NC1CCCCC1)N1CCOCC1)C1CCCCC1`, the values for the Aggregation in test [15], in test [11] and in test [9] were 62.7%, 0% and 100%, respectively. In test [2], this molecule returned a Relative potency of 0.003. In [3], this molecule had an IC50 of 3.2 µg/mL (≈ 4.4 µM).

Take `O=C(NCCCCCCCCNC(=O)N(C(=NC1CCCCC1)N1CCOCC1)C1CCCCC1)N(C(=NC1CCCCC1)N1CCOCC1)C1CCCCC1`: the Relative potency in test [2] is 0.001. Besides, in [3], it took 10 µg/mL (≈ 12.8 µM) to reach half-maximal inhibition (IC50).

`O=C(N1CCN(C(=O)N(/C(=N/C2CCCCC2)N2CCOCC2)C2CCCCC2)CC1)N(/C(=N/C1CCCCC1)N1CCOCC1)C1CCCCC1` registered a Relative potency in test [2] of 0.001. Further, the Aggregation in [9] turned out to be 44.8%. In test [3], half-maximal inhibition (IC50) was put at 10 µg/mL (≈ 13.8 µM).

In the case of `O=C(NCCCCNC(=O)N(C(=NC1CCCCC1)N1CCOCC1)C1CCCCC1)N(C(=NC1CCCCC1)N1CCOCC1)C1CCCCC1`, the Relative potency in [2] is reported as 0.001. For the same molecule, the Aggregation in [9] is 73.5%. In test [3], this molecule returned a half-maximal inhibitory concentration (IC50) of 10 µg/mL (≈ 13.8 µM).

In [2], `CN(Cc1cccc(CN(C)C(=O)N(C(=NC2CCCCC2)N2CCOCC2)C2CCCCC2)c1)C(=O)N(C(=NC1CCCCC1)N1CCOCC1)C1CCCCC1` showed a Relative potency of 0.003. Also, in test [9], the Aggregation was 38.5%. This molecule also displayed an IC50 in [3] of 3.2 µg/mL (≈ 3.98 µM).

As for `Cl.Cl.O=C(NCCCCCCNC(=O)N(/C(=N/C1CCCCC1)N1CCOCC1)C1CCCCC1)N(/C(=N\C1CCCCC1)N1CCOCC1)C1CCCCC1`, the Relative potency in [2] amounted to 0.001. The molecule further showed an Aggregation in test [9] of 84.5%. For the same molecule, in test [3], 10 µg/mL corresponded to half-maximal inhibition (IC50).

As to `O=C(NCCCCCCNC(=O)N(C(=NC1CCCCC1)N1CCCCC1)C1CCCCC1)N(C(=NC1CCCCC1)N1CCCCC1)C1CCCCC1`, the Aggregation in test [16] came to 86%; in test [17], 83.2%; in [18], 47.7%; in [11] it was 48.7%; in test [9], 46.2%. In test [2], this molecule came in with a Relative potency of 0.001. In addition, in test [3], the IC50 is 10 µg/mL (≈ 13.3 µM).
